From US20230278972A1, “SUBSTITUTED HALOALKYL SULFONANILIDE HERBICIDES” (FMC Corporation, priority 2020, published 2023)

Assays:
Type in all cases: in vivo
[1] = tested on: kochia (Bassia scoparia); assay: Test A preemergence, kochia; details: Preemergence; for Plant response rating, Kochia: 0 to 100 scale (0 no effect, 100 complete control); for Kochia plant response rating: visual injury on 0 to 100 scale (0 no effect, 100 complete control), approximately 10 days
Outline: (§1)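 Test chemicals, formulated in a non-phytotoxic solvent mixture with surfactant, were sprayed postemergence on plants 2 to 10 cm tall at the one- to two-leaf stage. Preemergence treatment was a directed soil spray onto freshly seeded pots. Both used a loam soil and sand blend.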

[2] = tested on: Ryegrass, Italian (Italian ryegrass, Lolium multiflorum); assay: Test A preemergence, Ryegrass, Italian; details: Preemergence; for Plant response rating, Ryegrass, Italian: 0 to 100 scale (0 no effect, 100 complete control); for Ryegrass, Italian plant response rating: visual injury on 0 to 100 scale (0 no effect, 100 complete control), approximately 10 days
Outline: as §1

[3] = tested on: Foxtail, Giant (giant foxtail, Setaria faberi); assay: Test A postemergence, Foxtail, Giant; details: Postemergence; for Foxtail, Giant plant response rating: 500 g ai/ha, visual injury vs untreated controls after approx. 10 days
Outline: as §1

[4] = tested on: pigweed (Amaranthus retroflexus); assay: Test A postemergence, pigweed; details: Postemergence; for Pigweed plant response rating: 500 g ai/ha, visual injury vs untreated controls after approx. 10 days
Outline: as §1

[5] = tested on: ragweed (common ragweed, Ambrosia artemisiifolia); assay: Test A preemergence, ragweed; details: Preemergence; for Plant response rating, Ragweed: 0 to 100 scale (0 no effect, 100 complete control); for Ragweed plant response rating: visual injury on 0 to 100 scale (0 no effect, 100 complete control), approximately 10 days
Outline: as §1

[6] = tested on: barnyardgrass (Echinochloa crus-galli); assay: Test A postemergence, barnyardgrass; details: Postemergence, 0 to 100 scale (0 no effect, 100 complete control); for Barnyardgrass plant response rating: 500 g ai/ha, visual injury vs untreated controls after approx. 10 days
Outline: (§2)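 Greenhouse pot test in a loam–sand blend; compounds delivered in a non-phytotoxic solvent carrying a surfactant, applied either as a directed spray to soil at seeding or over seedlings 2 to 10 cm high with one to two leaves.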

[7] = tested on: corn (Zea mays); assay: Test A postemergence, corn; details: Postemergence; for Corn plant response rating: 500 g ai/ha, visual injury vs untreated controls after approx. 10 days
Outline: as §1

[8] = tested on: galium (catchweed bedstraw, Galium aparine); assay: Test A postemergence, galium; details: Postemergence; for Galium plant response rating: 500 g ai/ha, visual injury vs untreated controls after approx. 10 days
Outline: as §2

[9] = tested on: pigweed (Amaranthus retroflexus); assay: Test A preemergence, pigweed; details: for Plant response rating, Pigweed: 0 to 100 scale (0 no effect, 100 complete control); for Pigweed plant response rating: visual injury on 0 to 100 scale (0 no effect, 100 complete control), approximately 10 days
Outline: as §2

[10] = tested on: ragweed (common ragweed, Ambrosia artemisiifolia); assay: Test A postemergence, ragweed; details: Postemergence; for Ragweed plant response rating: 500 g ai/ha, visual injury vs untreated controls after approx. 10 days
Outline: as §1

[11] = tested on: Foxtail, Giant (giant foxtail, Setaria faberi); assay: Test A preemergence, Foxtail, Giant; details: Preemergence; for Plant response rating, Foxtail, Giant: 0 to 100 scale (0 no effect, 100 complete control); for Foxtail, Giant plant response rating: visual injury on 0 to 100 scale (0 no effect, 100 complete control), approximately 10 days
Outline: as §1

[12] = tested on: Ryegrass, Italian (Italian ryegrass, Lolium multiflorum); assay: Test A postemergence, Ryegrass, Italian; details: Postemergence; for Ryegrass, Italian plant response rating: 500 g ai/ha, visual injury vs untreated controls after approx. 10 days
Outline: as §1

[13] = tested on: blackgrass (Alopecurus myosuroides); assay: Test A postemergence, blackgrass; details: Postemergence, 0 to 100 scale (0 no effect, 100 complete control); for Blackgrass plant response rating: 500 g ai/ha, visual injury vs untreated controls after approx. 10 days
Outline: as §1

[14] = tested on: barnyardgrass (Echinochloa crus-galli); assay: Test A preemergence, barnyardgrass; details: Preemergence; for Plant response rating, Barnyardgrass: 0 to 100 scale (0 no effect, 100 complete control); for Barnyardgrass plant response rating: visual injury on 0 to 100 scale (0 no effect, 100 complete control), approximately 10 days
Outline: as §1

[15] = tested on: wheat (Triticum aestivum); assay: Test A postemergence, wheat; details: Postemergence; for Wheat plant response rating: 500 g ai/ha, visual injury vs untreated controls after approx. 10 days
Outline: as §2

[16] = tested on: kochia (Bassia scoparia); assay: Test A postemergence, kochia; details: Postemergence; for Kochia plant response rating: 500 g ai/ha, visual injury vs untreated controls after approx. 10 days
Outline: as §1

[17] = 31 g ai/ha, visual injury, approx. 10 days
[18] = 31 g ai/ha, visual injury on 0 to 100 scale (0 no effect, 100 complete control), approx. 10 days
[19] = 125 g ai/ha, 0 to 100 scale (0 no effect, 100 complete control)
[20] = 125 g ai/ha, visual injury, approx. 10 days
[21] = 0 to 100 scale (0 no effect, 100 complete control)
[22] = 125 g ai/ha, visual injury approx. 10 days, 0 to 100 scale (0 no effect, 100 complete control)
[23] = 125 g ai/ha, visual injury approx. 10 days

## Cc1cc(C)c(N(COC(=O)C2CCCCC2)S(=O)(=O)C(F)(F)F)cc1C1=NOC2(CCCC2)C1 [Compound 148]
[1]; [17]
  Plant response rating, Kochia: 20
[1]; 125 g ai/ha
  Kochia plant response rating: 30
[2]; [17]
  Plant response rating, Ryegrass, Italian: 30
[2]; 125 g ai/ha
  Ryegrass, Italian plant response rating: 100
[3]; [18]
  Plant response rating, Foxtail, Giant: 0
[3]; [19]
  Plant response rating, Foxtail, Giant: 0
[4]; [18]
  Plant response rating, Pigweed: 40
[4]; [19]
  Plant response rating, Pigweed: 40
[5]; [17]
  Plant response rating, Ragweed: 0
[5]; 125 g ai/ha
  Ragweed plant response rating: 20
[6]; 31 g ai/ha
  Plant response rating, Barnyardgrass: 0
[6]; 125 g ai/ha
  Plant response rating, Barnyardgrass: 10
[7]; [18]
  Plant response rating, Corn: 0
[7]; [19]
  Plant response rating, Corn: 0
[8]; [18]
  Plant response rating, Galium: 0
[8]; [19]
  Plant response rating, Galium: 20
[9]; [17]
  Plant response rating, Pigweed: 30
[9]; 125 g ai/ha
  Pigweed plant response rating: 100
[10]; [18]
  Plant response rating, Ragweed: 0
[10]; [19]
  Plant response rating, Ragweed: 0
[11]; [17]
  Plant response rating, Foxtail, Giant: 40
[11]; 125 g ai/ha
  Foxtail, Giant plant response rating: 100
[12]; [18]
  Plant response rating, Ryegrass, Italian: 0
[12]; [19]
  Plant response rating, Ryegrass, Italian: 0
[13]; 31 g ai/ha
  Plant response rating, Blackgrass: 0
[13]; 125 g ai/ha
  Plant response rating, Blackgrass: 0
[14]; [17]
  Plant response rating, Barnyardgrass: 20
[14]; 125 g ai/ha
  Barnyardgrass plant response rating: 80
[15]; [18]
  Plant response rating, Wheat: 0
[15]; [19]
  Plant response rating, Wheat: 0
[16]; [18]
  Plant response rating, Kochia: 0
[16]; [19]
  Plant response rating, Kochia: 20

## Cc1cc(C)c(C(=O)N2CCC3(CCCCC3)CC2)cc1NS(=O)(=O)C(F)(F)F [Compound 195]
[1]; [20]
  Plant response rating, Kochia: 0
[1]; 500 g ai/ha
  Plant response rating, Kochia: 0
[2]; [20]
  Plant response rating, Ryegrass, Italian: 20
[2]; 500 g ai/ha
  Plant response rating, Ryegrass, Italian: 90
[3]; [19]
  Plant response rating, Foxtail, Giant: 0
[3]; [21]
  Foxtail, Giant plant response rating: 0
[4]; [19]
  Plant response rating, Pigweed: 0
[4]; [21]
  Pigweed plant response rating: 0
[5]; [20]
  Plant response rating, Ragweed: 0
[5]; 500 g ai/ha
  Plant response rating, Ragweed: 0
[6]; 125 g ai/ha
  Plant response rating, Barnyardgrass: 0
[6]
  Barnyardgrass plant response rating: 0
[7]; [19]
  Plant response rating, Corn: 20
[7]; [21]
  Corn plant response rating: 0
[8]; [19]
  Plant response rating, Galium: 10
[8]; [21]
  Galium plant response rating: 20
[9]; [20]
  Plant response rating, Pigweed: 60
[9]; 500 g ai/ha
  Plant response rating, Pigweed: 80
[10]; [19]
  Plant response rating, Ragweed: 0
[10]; [21]
  Ragweed plant response rating: 50
[11]; [20]
  Plant response rating, Foxtail, Giant: 70
[11]; 500 g ai/ha
  Plant response rating, Foxtail, Giant: 90
[12]; [19]
  Plant response rating, Ryegrass, Italian: 0
[12]; [21]
  Ryegrass, Italian plant response rating: 0
[13]; 125 g ai/ha
  Plant response rating, Blackgrass: 0
[13]
  Blackgrass plant response rating: 0
[14]; [20]
  Plant response rating, Barnyardgrass: 60
[14]; 500 g ai/ha
  Plant response rating, Barnyardgrass: 90
[15]; [19]
  Plant response rating, Wheat: 0
[15]; [21]
  Wheat plant response rating: 0
[16]; [19]
  Plant response rating, Kochia: 0
[16]; [21]
  Kochia plant response rating: 0

## COC1CCCN(C(=O)c2cc(N(S(=O)(=O)C(F)(F)F)S(=O)(=O)C(F)(F)F)c(C)cc2C)C1 (stereo not drawn) [Compound 119]
[1]; 125 g ai/ha
  Kochia plant response rating: 50
[1]; 500 g ai/ha
  Plant response rating, Kochia: 100
[2]; 125 g ai/ha
  Ryegrass, Italian plant response rating: 80
[2]; 500 g ai/ha
  Plant response rating, Ryegrass, Italian: 100
[3]; [22]
  Plant response rating, Foxtail, Giant: 30
[3]; [21]
  Foxtail, Giant plant response rating: 80
[4]; [22]
  Plant response rating, Pigweed: 40
[4]; [21]
  Pigweed plant response rating: 70
[5]; 125 g ai/ha
  Ragweed plant response rating: 80
[5]; 500 g ai/ha
  Plant response rating, Ragweed: 100
[6]; [23]
  Plant response rating, Barnyardgrass: 40
[6]
  Barnyardgrass plant response rating: 90
[7]; [22]
  Plant response rating, Corn: 10
[7]; [21]
  Corn plant response rating: 30
[8]; [22]
  Plant response rating, Galium: 80
[8]; [21]
  Galium plant response rating: 90
[9]; 125 g ai/ha
  Pigweed plant response rating: 100
[9]; 500 g ai/ha
  Plant response rating, Pigweed: 100
[10]; [22]
  Plant response rating, Ragweed: 70
[10]; [21]
  Ragweed plant response rating: 90
[11]; 125 g ai/ha
  Foxtail, Giant plant response rating: 100
[11]; 500 g ai/ha
  Plant response rating, Foxtail, Giant: 100
[12]; [22]
  Plant response rating, Ryegrass, Italian: 20
[12]; [21]
  Ryegrass, Italian plant response rating: 90
[13]; [23]
  Plant response rating, Blackgrass: 0
[13]
  Blackgrass plant response rating: 40
[14]; 125 g ai/ha
  Barnyardgrass plant response rating: 100
[14]; 500 g ai/ha
  Plant response rating, Barnyardgrass: 100
[15]; [22]
  Plant response rating, Wheat: 10
[15]; [21]
  Wheat plant response rating: 70
[16]; [22]
  Plant response rating, Kochia: 20
[16]; [21]
  Kochia plant response rating: 60
